Results on ten molecules are retold here after ChEMBL document CHEMBL1130798, “Structure based design: novel spirocyclic ethers as nonpeptidal P2-ligands for HIV protease inhibitors” (Bioorg Med Chem Lett, 1998).

As usually defined, the Ki is the equilibrium dissociation constant of an inhibitor or competing ligand from its target. A lower Ki goes with tighter binding.

In experiment [1] the target is Human immunodeficiency virus type 1 protease (Human immunodeficiency virus 1, UniProt Q72874). In words: Compound was evaluated for binding affinity against HIV protease.
The subject of a further experiment is MT4. In words: Compound was evaluated for the inhibition spread of HIV-1 in MT-4 human T-lymphoid cells infected with IIIB isolate. Conditions: read-out: ID50 (the source's name). The class given is functional.

Molecules are shown by their SMILES.

In experiment [1], `COc1ccc(S(=O)(=O)N(CC(C)C)C[C@@H](O)[C@H](Cc2ccccc2)NC(=O)C2CC3(CCCC3)CCO2)cc1` (stereo not given in full) registered a Ki of 1500 nM. That is a single-digit micromolar value.

On to `CCC[C@]1(O)CCO[C@@H](C(=O)N[C@@H](Cc2ccccc2)[C@H](O)CN(CC(C)C)S(=O)(=O)c2ccc(OC)cc2)C1`, for which the IC50 in the experiment on MT4 came to 3400 nM. The affinity in experiment [1], expressed as Ki, was 150 nM.

Take `CCC[C@@]1(O)CCO[C@H](C(=O)N[C@@H](Cc2ccccc2)[C@H](O)CN(CC(C)C)S(=O)(=O)c2ccc(OC)cc2)C1`: the IC50 in the experiment with MT4 was more than 10000 nM. This molecule also returned an inhibitory constant (Ki) in experiment [1] of 480 nM.

In the case of `COc1ccc(S(=O)(=O)N(CC(C)C)C[C@@H](O)[C@H](Cc2ccccc2)NC(=O)[C@@H]2C[C@]3(CCCO3)CCO2)cc1`, the IC50 in the experiment on MT4 stood at 4500 nM. In experiment [1], this molecule displayed a Ki of 150 nM.

As for `CCC[C@@]1(O)CCO[C@@H](C(=O)N[C@@H](Cc2ccccc2)[C@H](O)CN(CC(C)C)S(=O)(=O)c2ccc(OC)cc2)C1`, the inhibitory constant (Ki) in experiment [1] is more than 1000 nM.

In turn, `COc1ccc(S(=O)(=O)N(CC(C)C)C[C@@H](O)[C@H](Cc2ccccc2)NC(=O)[C@H]2C[C@]3(CCCO3)CCO2)cc1` yielded a Ki in experiment [1] of more than 2000 nM.

As to `CC(C)(C)NC(=O)C1CC2CCCCC2CN1C[C@@H](O)[C@H](Cc1ccccc1)NC(=O)[C@H](CC(N)=O)NC(=O)c1ccc2ccccc2n1` (single isomer, unassigned), in the experiment on MT4, the IC50 came out at 18000 nM.

Consider `COc1ccc(S(=O)(=O)N(CC(C)C)C[C@@H](O)[C@H](Cc2ccccc2)NC(=O)[C@@H]2C[C@@]3(CCCO3)CCO2)cc1`, for which the IC50 in the experiment on MT4 was 2400 nM. For the same molecule, the affinity in experiment [1] corresponds to a Ki of 20 nM.

Turning to `COc1ccc(S(=O)(=O)N(CC(C)C)C[C@@H](O)[C@H](Cc2ccccc2)NC(=O)[C@H]2C[C@@]3(CCCO3)CCO2)cc1`, in the experiment with MT4, the IC50 came out at 9100 nM. In experiment [1], this molecule returned a Ki of 400 nM.

Regarding `CCC[C@]1(O)CCO[C@H](C(=O)N[C@@H](Cc2ccccc2)[C@H](O)CN(CC(C)C)S(=O)(=O)c2ccc(OC)cc2)C1`, in experiment [1], the inhibition constant (Ki) was more than 1000 nM.
